The nature of this assay: Displacement of [125I]asialoorosomucoid from ASGP receptor.

A word on the Ki: it is a dissociation constant, usually derived from enzyme kinetics or from competition with a known ligand. Higher therefore signals weaker binding.

`O=C(CCCCO[C@@H]1O[C@H](CO)[C@H](O)[C@H](O)[C@H]1O)NCCCNC(=O)CCOCC(COCCC(=O)NCCCNC(=O)CCCCO[C@@H]1O[C@H](CO)[C@H](O)[C@H](O)[C@H]1O)(COCCC(=O)NCCCNC(=O)CCCCO[C@@H]1O[C@H](CO)[C@H](O)[C@H](O)[C@H]1O)NC(=O)CNC(=O)OCc1ccccc1` returned a Ki of 93 nM. As to `CC(=O)N[C@H]1[C@H](OCCOCCOCCNC(=O)CCOCC(COCCC(=O)NCCOCCOCCO[C@@H]2O[C@H](CO)[C@H](O)[C@H](O)[C@H]2NC(C)=O)(COCCC(=O)NCCOCCOCCO[C@@H]2O[C@H](CO)[C@H](O)[C@H](O)[C@H]2NC(C)=O)NC(=O)CN)O[C@H](CO)[C@H](O)[C@@H]1O`, the Ki came to 2 nM. `COC(=O)CCCCC(=O)NCC(=O)NC(COCOCCOCCOCCOCCO[C@@H]1O[C@H](CO)[C@H](O)[C@H](O)[C@H]1O)(COCOCCOCCOCCOCCO[C@@H]1O[C@H](CO)[C@H](O)[C@H](O)[C@H]1O)COCOCCOCCOCCOCCO[C@@H]1O[C@H](CO)[C@H](O)[C@H](O)[C@H]1O`: affinity was put at a Ki of 200 nM.
